Results as given in patent US8889704B2 (Array BioPharma Inc., priority 2011, dated 2014).
pIC50: −log10 of the molar value. Counter-ions that a name gives are not always drawn.

Tests used:
Assay type in all cases: biochemical
[1] = biological target: PIM-1 (Homo sapiens, UniProt P11309); assay: Enzyme PIM-1 Assay ([33P]ATP incorporation into PIM2tide, filter plate); conditions: averaged IC50; 35 μM ATP, 7.5 μM PIM2tide, 0.25 nM PIM-1, 60 min at 22° C.
Method: (§1) The assay for the determination of PIM-1 activity is based on the incorporation of [^33P]PO4 from [γ-^33P]ATP into PIM2tide substrate and capture of the radiolabeled peptide onto a Whatman P81 (phosphocellulose) filter plate. The amount of radiolabeled product is then measured by liquid scintillation counting. The final buffer conditions were as follows: 20 mM K^+MOPS, pH 7.4, 10 mM MgCl2, 0.005% Tween-20, 1 mM DTT. Assay mixtures contained 35 μM [γ-^33P]ATP (20 μCi/mL), 7.5 μM PIM2tide and 0.25 nM PIM-1 in a total volume of 50 μL. Incubations were carried out for 60 min at 22° C. and quenched with 75 μL of 200 mM H3PO4, filtered through a Whatman P81 plate and washed (1×200 μL and 5×100 μL) with 200 mM H3PO4. Fifty μL of liquid scintillation cocktail were then added per well, and the plate was counted for 30 s/well using a TopCount NXT.
(§2) Compounds were prepared at 50× the final concentration in DMSO by conducting 3-fold serial dilutions from a 500-μM intermediate dilution to give a 10-point dosing curve having a high dose of 10 μM. One-μL aliquots of these were then transferred to the assay mixtures above to give a final concentration of DMSO of 2%. A standard or reference compound was typically included on each assay plate to validate that plate. For each plate, percent of control (POC) values were calculated for each well. IC50 values were estimated from the POC values using a standard 4-parameter logistic model. The IC50 is defined as the concentration of inhibitor at which the POC equals 50 for the fitted curve.

[2] = biological target: recombinant rat PIM-3 (Rattus norvegicus, UniProt O70444); assay: PIM-3 Assay (as Example A); conditions: averaged IC50; 30 μM ATP, 3.75 μM PIM2tide, 0.5 nM PIM-3
Method: as §1, §2
Assay was performed as described in Example A, using 30 μM [γ-^33P]ATP (20 μCi/mL), 3.75 μM PIM2tide and 0.5 nM recombinant rat PIM-3 in place of PIM-1.

[3] = biological target: T1, GST-tagged recombinant full-length human Pim-2 (Homo sapiens, UniProt Q9P1W9); assay: PIM-2 Assay (as Example A); conditions: averaged IC50; 4 μM ATP, 1.0 μM PIM2tide, 1.5 nM Pim-2
T1 construct: GST-tagged recombinant full-length human Pim-2; GST
Method: as §1, §2
Assay was performed as described in Example A, using 4 μM [γ-^33P]ATP (20 μCi/mL), 1.0 μM PIM2tide and 1.5 nM GST-tagged recombinant full-length human Pim-2 in place of PIM-1.

Sequence of PIM-1 (P11309 whole entry, species assumed): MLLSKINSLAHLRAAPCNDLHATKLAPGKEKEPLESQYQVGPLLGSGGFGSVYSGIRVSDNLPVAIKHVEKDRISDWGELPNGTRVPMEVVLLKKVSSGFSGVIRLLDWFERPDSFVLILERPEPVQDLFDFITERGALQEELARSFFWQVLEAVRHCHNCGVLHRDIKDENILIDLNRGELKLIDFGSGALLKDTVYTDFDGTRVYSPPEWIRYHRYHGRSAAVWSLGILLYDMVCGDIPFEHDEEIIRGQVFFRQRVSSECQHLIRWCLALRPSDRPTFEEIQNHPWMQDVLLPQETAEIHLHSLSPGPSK
T1 sequence (Q9P1W9 whole entry): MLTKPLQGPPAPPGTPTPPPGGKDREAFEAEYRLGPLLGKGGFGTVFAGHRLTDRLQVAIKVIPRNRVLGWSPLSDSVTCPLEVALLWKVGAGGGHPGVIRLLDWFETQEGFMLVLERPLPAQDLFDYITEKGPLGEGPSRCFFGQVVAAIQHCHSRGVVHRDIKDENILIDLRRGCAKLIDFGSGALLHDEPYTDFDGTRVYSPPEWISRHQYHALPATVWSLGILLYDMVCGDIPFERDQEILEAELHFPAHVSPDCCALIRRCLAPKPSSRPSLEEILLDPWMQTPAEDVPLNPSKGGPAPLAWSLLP

| Structure (SMILES) | pIC50 [1] | pIC50 [2] | pIC50 [3] |
| --- | --- | --- | --- |
| CC(C)(C)C(=O)Nc1ccc2ccc(-c3nnc4ccc([C@@H](N5CC[C@H](N)C5)C(F)(F)F)cn34)nc2c1 [Example 71, N-(2-(6-((R)-1-((S)-3-aminopyrrolidin-1-yl)-2,2,2-trifluoroethyl)-[1,2,4]triazolo[4,3-a]pyridin-3-yl)quinolin-7-yl)pivalamide] | 9.70 | 9.52 | < 7.00 |
| COCCOc1cccc2ccc(-c3nnc4ccc([C@@H](N5CC[C@H](N)C5)C(F)(F)F)cn34)nc12 [Example 227, (S)-1-((R)-2,2,2-trifluoro-1-(3-(8-(2-methoxyethoxy)quinolin-2-yl)-[1,2,4]triazolo[4,3-a]pyridin-6-yl)ethyl)pyrrolidin-3-amine dihydrochloride] | 9.32 | 8.60 | 6.34 |
| N[C@H]1CCN([C@H](c2ccc3nnc(-c4ccc5cc(F)c(OCCO)cc5n4)n3c2)C(F)(F)F)C1 [Example 123, 2-(2-(6-((R)-1-((S)-3-aminopyrrolidin-1-yl)-2,2,2-trifluoroethyl)-[1,2,4]triazolo[4,3-a]pyridin-3-yl)-6-fluoroquinolin-7-yloxy)ethanol hydrochloride] | 9.70 | 9.40 | 7.14 |
| Cn1cc(-c2cc3nc(-c4nnc5ccc([C@@H](N6CC[C@H](N)C6)C(F)(F)F)cn45)ccc3cc2F)cn1 [Example 173, (S)-1-((R)-2,2,2-trifluoro-1-(3-(6-fluoro-7-(1-methyl-1H-pyrazol-4-yl)quinolin-2-yl)-[1,2,4]triazolo[4,3-a]pyridin-6-yl)ethyl)pyrrolidin-3-amine tri-hydrochloride] | 9.89 | 9.40 | < 7.00 |
| COc1cccc2ccc(-c3nnc4ccc([C@@H](N5CC[C@@](C)(N)C5)C(F)(F)F)cn34)nc12 [Example 240, (R)-3-methyl-1-((R)-2,2,2-trifluoro-1-(3-(8-methoxyquinolin-2-yl)-[1,2,4]triazolo[4,3-a]pyridin-6-yl)ethyl)pyrrolidin-3-amine dihydrochloride] | 8.63 | 7.74 | < 6.00 |
| CC(C)Oc1cccc2ccc(-c3nnc4ccc([C@H](N5CCC(C)(O)C5)C(F)(F)F)cn34)nc12 (single isomer, unassigned; diastereomer 1) [Example 199] | 7.73 | 7.52 | < 6.00 |
| COc1cc2nc(-c3nnc4ccc([C@@H](N5CC[C@H](N)C5)C(F)(F)F)cn34)ccc2cc1C [Example 138, (S)-1-((R)-2,2,2-trifluoro-1-(3-(7-methoxy-6-methylquinolin-2-yl)-[1,2,4]triazolo[4,3-a]pyridin-6-yl)ethyl)pyrrolidin-3-amine hydrochloride] | 8.69 | 8.02 | < 7.00 |
| Cc1cnn(-c2ccc3ccc(-c4nnc5ccc([C@@H](N6CC[C@H](N)C6)C(F)(F)F)cn45)nc3c2C)c1 [Example 190, (S)-1-((R)-2,2,2-trifluoro-1-(3-(8-methyl-7-(4-methyl-1H-pyrazol-1-yl)quinolin-2-yl)-[1,2,4]triazolo[4,3-a]pyridin-6-yl)ethyl)pyrrolidin-3-amine dihydrochloride] | 8.99 | 9.00 | < 7.00 |
| COCCOc1ccc2cc(F)c(-c3nnc4ccc([C@@H](N5CC[C@H](N)C5)C(F)(F)F)cn34)nc2c1 [Example 326, (S)-1-((R)-2,2,2-trifluoro-1-(3-(3-fluoro-7-(2-methoxyethoxy)quinolin-2-yl)-[1,2,4]triazolo[4,3-a]pyridin-6-yl)ethyl)pyrrolidin-3-amine] | 9.51 | 8.87 | 6.23 |
| CC(C)(C)C(=O)Nc1ccc2ccc(-c3nnc4ccc([C@@H](N5CC[C@H](O)C5)C(F)(F)F)cn34)nc2c1 [Example 107, N-(2-(6-((R)-2,2,2-trifluoro-1-((S)-3-hydroxypyrrolidin-1-yl)ethyl)-[1,2,4]triazolo[4,3-a]pyridin-3-yl)quinolin-7-yl)pivalamide] | 9.32 | 9.05 | < 7.00 |
| CCC(C)(C)NC(=O)c1ccc2ccc(-c3nnc4ccc([C@@H](N5CC[C@@H](N)C5)C(F)(F)F)cn34)nc2c1 [Example 59, 2-(6-((R)-1-((R)-3-aminopyrrolidin-1-yl)-2,2,2-trifluoroethyl)-[1,2,4]triazolo[4,3-a]pyridin-3-yl)-N-tert-pentylquinoline-7-carboxamide dihydrochloride] | 9.25 | 9.10 | < 7.00 |
| Cn1cc(-c2ccc3ccc(-c4nnc5ccc([C@H](N6CCC(C)(O)C6)C(F)(F)F)cn45)nc3c2)cn1 (single isomer, unassigned; diastereomer 1) [Example 200] | 8.73 | 8.47 | 6.86 |
| CC(C)Oc1cc(F)cc2ccc(-c3nnc4ccc([C@H](N5CCC(C)(O)C5)C(F)(F)F)cn34)nc12 (single isomer, unassigned; diastereomer 2) [Example 203, hydrochloride] | 7.70 | 7.43 | < 6.00 |
| CC(C)Oc1cc(F)cc2ccc(-c3nnc4ccc([C@@H](N5C[C@@H](N)[C@@H](O)C5)C(F)(F)F)cn34)nc12 [Example 132, (3S,4R)-4-amino-1-((R)-2,2,2-trifluoro-1-(3-(6-fluoro-8-isopropoxyquinolin-2-yl)-[1,2,4]triazolo[4,3-a]pyridin-6-yl)ethyl)pyrrolidin-3-ol dihydrochloride] | 8.35 | 7.80 | 6.27 |
| N#Cc1ccc2ccc(-c3nnc4ccc([C@@H](N5CC[C@H](N)C5)C(F)(F)F)cn34)nc2c1 [Example 84, 2-(6-((R)-1-((S)-3-aminopyrrolidin-1-yl)-2,2,2-trifluoroethyl)-[1,2,4]triazolo[4,3-a]pyridin-3-yl)quinoline-7-carbonitrile] | 9.14 | 7.92 | < 7.00 |
| CCOCCOc1ccc2ccc(-c3nnc4ccc([C@H](N5CC[C@](C)(N)C5)C(F)(F)F)cn34)nc2c1 [Example 306, (S)-1-((S)-1-(3-(7-(2-ethoxyethoxy)quinolin-2-yl)-[1,2,4]triazolo[4,3-a]pyridin-6-yl)-2,2,2-trifluoroethyl)-3-methylpyrrolidin-3-amine] | 9.55 | 9.15 | 6.55 |
| Cc1c(-c2cc3nc(-c4nnc5ccc([C@@H](N6CC[C@H](N)C6)C(F)(F)F)cn45)ccc3cc2F)cnn1C [Example 206, (3 S)-1-((1R)-1-(3-(7-(1,5-dimethyl-1H-pyrazol-4-yl)-6-fluoroquinolin-2-yl)-[1,2,4]triazolo[4,3-a]pyridin-6-yl)-2,2,2-trifluoroethyl)pyrrolidin-3-amine dihydrochloride] | 10.05 | 10.00 | 7.26 |
| COCCc1cc2nc(-c3nnc4ccc([C@H](N5CC[C@](C)(N)C5)C(F)(F)F)cn34)ccc2cc1F [Example 311, (S)-3-methyl-1-((S)-2,2,2-trifluoro-1-(3-(6-fluoro-7-(2-methoxyethyl)quinolin-2-yl)-[1,2,4]triazolo[4,3-a]pyridin-6-yl)ethyl)pyrrolidin-3-amine] | – | – | 7.30 |
| COc1cc(F)cc2ccc(-c3nnc4ccc([C@@H](N5CC[C@H](N)C5)C(F)(F)F)cn34)nc12 [Example 115, (S)-1-((R)-2,2,2-trifluoro-1-(3-(6-fluoro-8-methoxyquinolin-2-yl)-[1,2,4]triazolo[4,3-a]pyridin-6-yl)ethyl)pyrrolidin-3-amine hydrochloride] | 9.54 | – | < 7.00 |
| CCOc1cc2nc(-c3nnc4ccc([C@@H](N5CC[C@H](N)C5)C(F)(F)F)cn34)ccc2cc1F [Example 133, (S)-1-((R)-1-(3-(7-ethoxy-6-fluoroquinolin-2-yl)-[1,2,4]triazolo[4,3-a]pyridin-6-yl)-2,2,2-trifluoroethyl)pyrrolidin-3-amine hydrochloride] | 9.80 | – | 7.11 |
| CC(C)(C)OC(=O)N[C@@H]1CCN([C@@H](c2ccc3nnc(-c4ccc5ccc(C(=O)O)cc5n4)n3c2)C(F)(F)F)C1 [Example 85, 2-(6-((S)-1-((R)-3-(tert-butoxycarbonylamino)pyrrolidin-1-yl)-2,2,2-trifluoroethyl)-[1,2,4]triazolo[4,3-a]pyridin-3-yl)quinoline-7-carboxylic acid] | – | 7.74 | – |
